Structures are written as SMILES. Where two headings read alike, the source gives them in different places.

Broadly, the GI50 is the concentration at which growth is held to half of that of the control. A high value points to less potent growth inhibition.

Test [1] addresses T1, BRAF V600E (Homo sapiens, UniProt P15056+Q96SW2, V600E).
T1 construct: knock-in of the HiBiT tag to the endogenous BRAF V600E locus; host or cells: A375.10 (A375 clonal line, CRISPR HiBiT knock-in at the endogenous BRAF V600E locus)
The test is described as follows: BRAF V600E HiBiT Degradation Assay. The class given is cell-based. Put shortly: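 Endogenous HiBiT knock-in on BRAF V600E in A375 cells (clone A375.10); 11-point half-log series, top 10 μM, 2, 6 or 24 h at 37° C. Lytic HiBiT luminescence, background-subtracted, normalized to DMSO; 4-parameter fit gives DC50, Emax (residual protein) and IP (inflection point).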

Test [2] deals with A375-NRAS^Q61K cells. Briefly: CTGlo Cell Viability Assay, A375-NRAS^Q61K (A375.11) cells, 96 hours. The test is classed as cell-based, human. The note with it: A375.11 (A375-NRAS^Q61K) cells; for CTGlo A375.11 96 hours Emax / Emax: lowest % viability achieved. Put shortly: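 Viability as CellTiter-Glo ATP luminescence after 96 h compound exposure at 37 °C; A375.11 (BRAF V600E/NRAS Q61K) cells at 250/well, top final concentration 10 μM in half-log steps. Signal was background-corrected and set relative to DMSO controls. A 4-parameter logistic fit gave GI50 (50% crossing) and Emax.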

The mark [3] stands for this setting: A375.10 cells, BRAF V600E, 2 hours, inflection point, read-out: HiBiT-Degradation A375.10 BRAF 2 hours IP.
Setting [4] is: A375.10 cells, BRAF V600E, 2 hours, read-out: HiBiT-Degradation A375.10 BRAF 2 hours DC50.
Setting [5] is: A375.10 cells, BRAF V600E, 2 hours, residual protein remaining.
The mark [6] stands for this setting: A375.10 cells, BRAF V600E, 2 hours, residual protein remaining, read-out: HiBiT-Degradation A375.10 BRAF 2 hours Emax.
[7] abbreviates: read-out: HiBiT-Degradation A375.10 BRAF 2 hours DC50, A375.10 cells, BRAF V600E, 2 hours.
[8] abbreviates: read-out: HiBiT-Degradation A375.10 BRAF 2 hours IP, A375.10 cells, BRAF V600E, 2 hours, inflection point.

T1 sequence (P15056 whole entry V600E): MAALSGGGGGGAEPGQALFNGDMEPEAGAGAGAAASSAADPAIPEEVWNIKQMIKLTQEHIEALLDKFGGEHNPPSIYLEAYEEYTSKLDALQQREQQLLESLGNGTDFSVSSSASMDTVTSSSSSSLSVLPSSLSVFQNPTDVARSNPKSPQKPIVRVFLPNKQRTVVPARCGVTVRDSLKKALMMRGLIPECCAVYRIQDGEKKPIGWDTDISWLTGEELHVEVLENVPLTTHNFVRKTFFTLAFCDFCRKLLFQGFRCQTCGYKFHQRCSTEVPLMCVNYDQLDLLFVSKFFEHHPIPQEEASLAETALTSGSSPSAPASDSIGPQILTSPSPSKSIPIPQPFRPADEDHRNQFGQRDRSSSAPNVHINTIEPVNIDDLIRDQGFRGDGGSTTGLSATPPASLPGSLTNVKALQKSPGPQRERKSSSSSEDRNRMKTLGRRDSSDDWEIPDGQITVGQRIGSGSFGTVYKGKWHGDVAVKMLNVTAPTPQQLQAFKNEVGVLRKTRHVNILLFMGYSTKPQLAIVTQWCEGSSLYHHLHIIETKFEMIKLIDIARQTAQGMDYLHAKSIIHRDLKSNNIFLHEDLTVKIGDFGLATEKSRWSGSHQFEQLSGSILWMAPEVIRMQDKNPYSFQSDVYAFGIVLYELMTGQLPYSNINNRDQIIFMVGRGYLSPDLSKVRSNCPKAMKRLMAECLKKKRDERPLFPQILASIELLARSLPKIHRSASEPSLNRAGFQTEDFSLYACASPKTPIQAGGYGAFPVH
T1 sequence (Q96SW2 whole entry): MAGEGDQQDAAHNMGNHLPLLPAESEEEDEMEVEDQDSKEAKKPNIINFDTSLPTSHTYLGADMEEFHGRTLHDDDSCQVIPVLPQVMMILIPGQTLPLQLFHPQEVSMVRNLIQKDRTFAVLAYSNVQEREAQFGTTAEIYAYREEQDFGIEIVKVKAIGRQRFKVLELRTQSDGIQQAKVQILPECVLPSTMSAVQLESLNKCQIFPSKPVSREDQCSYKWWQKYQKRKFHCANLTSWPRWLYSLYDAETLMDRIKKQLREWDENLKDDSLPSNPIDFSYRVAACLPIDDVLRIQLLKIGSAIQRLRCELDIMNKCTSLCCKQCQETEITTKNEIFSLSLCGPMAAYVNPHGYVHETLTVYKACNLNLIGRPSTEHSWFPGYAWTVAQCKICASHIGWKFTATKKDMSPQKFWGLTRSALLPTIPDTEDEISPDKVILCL
T1 sequence (Q16531 whole entry partner): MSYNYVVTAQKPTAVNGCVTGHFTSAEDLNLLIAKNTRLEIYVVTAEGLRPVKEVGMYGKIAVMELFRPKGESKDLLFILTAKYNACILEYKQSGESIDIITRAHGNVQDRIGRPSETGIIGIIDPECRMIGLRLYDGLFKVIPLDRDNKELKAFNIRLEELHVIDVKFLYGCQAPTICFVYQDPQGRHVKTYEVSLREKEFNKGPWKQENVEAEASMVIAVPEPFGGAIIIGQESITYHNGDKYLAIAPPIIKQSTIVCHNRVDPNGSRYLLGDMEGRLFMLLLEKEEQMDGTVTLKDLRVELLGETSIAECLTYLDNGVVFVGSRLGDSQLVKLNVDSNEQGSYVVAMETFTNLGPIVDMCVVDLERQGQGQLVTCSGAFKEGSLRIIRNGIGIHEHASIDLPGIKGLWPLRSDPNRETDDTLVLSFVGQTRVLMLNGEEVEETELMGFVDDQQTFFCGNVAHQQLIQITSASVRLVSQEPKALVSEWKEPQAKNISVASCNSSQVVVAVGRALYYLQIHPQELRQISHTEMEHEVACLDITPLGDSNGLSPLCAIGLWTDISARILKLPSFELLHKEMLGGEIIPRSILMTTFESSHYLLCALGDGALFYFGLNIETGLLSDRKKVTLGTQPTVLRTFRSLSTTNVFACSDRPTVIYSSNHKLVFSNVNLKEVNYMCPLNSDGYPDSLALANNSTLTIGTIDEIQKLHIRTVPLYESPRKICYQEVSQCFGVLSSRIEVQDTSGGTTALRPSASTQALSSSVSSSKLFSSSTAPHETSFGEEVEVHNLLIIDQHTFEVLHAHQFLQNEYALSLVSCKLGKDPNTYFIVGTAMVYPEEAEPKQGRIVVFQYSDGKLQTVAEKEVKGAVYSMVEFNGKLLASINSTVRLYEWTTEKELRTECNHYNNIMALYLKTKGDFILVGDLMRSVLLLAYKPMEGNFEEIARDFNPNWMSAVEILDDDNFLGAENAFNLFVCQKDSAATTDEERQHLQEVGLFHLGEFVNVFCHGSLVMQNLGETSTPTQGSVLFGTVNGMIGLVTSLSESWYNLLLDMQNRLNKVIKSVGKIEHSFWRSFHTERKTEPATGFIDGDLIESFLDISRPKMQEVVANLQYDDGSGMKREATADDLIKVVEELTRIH

Turning to `CCN(C)S(=O)(=O)Nc1ccc(F)c(Oc2ccc3ncn(C4CCC(N5CC6(CCN(c7cc8c(cc7F)c(N7CCC(=O)NC7=O)nn8C)CC6)C5)CC4)c(=O)c3c2)c1C#N` (single isomer, unassigned) [Compound 222, 6-[2-cyano-3-[[ethyl(methyl)sulfamoyl]amino]-6-fluoro-phenoxy]-3-[4-[7-[3-(2,4-dioxohexahydropyrimidin-1-yl)-5-fluoro-1-methyl-indazol-6-yl]-2,7-diazaspiro[3.5]nonan-2-yl]cyclohexyl]-4-oxo-quinazoline], in test [1] (setting [3]), the DC50 is less than 1000 nM. Also, the DC50 in test [1] (setting [4]) was less than 1000 nM. In addition, the “HiBiT-Degradation A375.10 BRAF 2 hours Emax” value in test [1] (setting [5]) is reported as “*** (<=50%)”. Also, in test [2], the concentration for 50% growth inhibition (GI50) is less than 1000 nM; the “CTGlo A375.11 96 hours Emax” value is “** (<90% and >50%)”.
Consider `CCN(C)S(=O)(=O)Nc1ccc(F)c(Oc2ccc3ncn(CC4(F)CCN(C5CCC(c6cc7c(cc6F)c(N6CCC(=O)NC6=O)nn7C)CC5)CC4)c(=O)c3c2)c1C#N` (single isomer, unassigned) [Compound 201, 6-[2-cyano-3-[[ethyl(methyl)sulfamoyl]amino]-6-fluoro-phenoxy]-3-[[1-[4-[3-(2,4-dioxohexahydropyrimidin-1-yl)-5-fluoro-1-methyl-indazol-6-yl]cyclohexyl]-4-fluoro-4-piperidyl]methyl]-4-oxo-quinazoline], for which the DC50 in test [1] (setting [3]) and in test [1] (setting [4]) was less than 1000 nM throughout. In addition, the Emax in test [1] (setting [6]) was less than 50%; in test [2] (Homo sapiens, 96 h) it was 50 to 90%. In test [2] (Homo sapiens, 96 h), this molecule showed a GI50 of 1000 to 10000 nM.
`Cn1nc(N2CCC(=O)NC2=O)c2cc(F)c(N3CC4(CC(N5CCC6(CC5)CC(c5cnc7ccc(Oc8c(F)ccc(NS(=O)(=O)C9CCCC9)c8C#N)cc7n5)C6)C4)C3)cc21` [Compound 283, N-[2-cyano-3-[3-[7-[2-[3-(2,4-dioxohexahydropyrimidin-1-yl)-5-fluoro-1-methyl-indazol-6-yl]-2-azaspiro[3.3]heptan-6-yl]-7-azaspiro[3.5]nonan-2-yl]quinoxalin-6-yl]oxy-4-fluoro-phenyl]cyclopentanesulfonamide]: the Emax in test [1] (setting [6]) was less than 50%; in test [2] (Homo sapiens, 96 h) it was 50 to 90%. The DC50 in test [1] (setting [7]) and in test [1] (setting [8]) was less than 1000 nM throughout. For the same molecule, the concentration for 50% growth inhibition (GI50) in test [2] (Homo sapiens, 96 h) is less than 1000 nM.
In the case of `CCN(C)S(=O)(=O)Nc1ccc(F)c(Oc2ccc3ncc([C@@H]4COC5(CCN(C6CCC(c7ccc(NC8CCC(=O)NC8=O)cc7F)CC6)CC5)C4)nc3c2)c1C#N` (single isomer, unassigned) [Compound 61], in test [1], the “HiBiT-Degradation A375.10 BRAF 2 hours Emax” value was “** (<90% and >50%)”. The DC50 in test [1] (setting [3]) was less than 1000 nM; in test [1] (setting [4]), 1000 to 10000 nM. The molecule also came in with a 50% growth inhibitory concentration (GI50) in test [2] of more than 10000 nM. Further, in test [2], the “CTGlo A375.11 96 hours Emax” value was “** (<90% and >50%)”.
Consider `Cn1nc(N2CCC(=O)NC2=O)c2cc(F)c(N3CC4(CC(N5CCC6(CC5)CC(n5cnc7ccc(Oc8c(F)ccc(NS(=O)(=O)C9CCOCC9)c8C#N)cc7c5=O)C6)C4)C3)cc21` [Compound 263, N-[2-cyano-3-[3-[7-[2-[3-(2,4-dioxohexahydropyrimidin-1-yl)-5-fluoro-1-methyl-indazol-6-yl]-2-azaspiro[3.3]heptan-6-yl]-7-azaspiro[3.5]nonan-2-yl]-4-oxo-quinazolin-6-yl]oxy-4-fluoro-phenyl]tetrahydropyran-4-sulfonamide], for which the Emax in test [1] (setting [6]) was less than 50%; in test [2] (Homo sapiens, 96 h), 50 to 90%. In addition, the DC50 in test [1] (setting [7]) and in test [1] (setting [8]) was less than 1000 nM in each case. The same molecule registered a 50% growth inhibitory concentration (GI50) in test [2] (Homo sapiens, 96 h) of more than 10000 nM.
With `CCN(C)S(=O)(=O)Nc1ccc(F)c(Oc2ccc3ncc(OCC4(O)CCN(C5CCC(c6cc7c(cc6F)c(N6CCC(=O)NC6=O)nn7C)CC5)CC4)nc3c2)c1C#N` (single isomer, unassigned) [Compound 195, 7-[2-cyano-3-[[ethyl(methyl)sulfamoyl]amino]-6-fluoro-phenoxy]-2-[[1-[4-[3-(2,4-dioxohexahydropyrimidin-1-yl)-5-fluoro-1-methyl-indazol-6-yl]cyclohexyl]-4-hydroxy-4-piperidyl]methoxy]quinoxaline], the DC50 was less than 1000 nM in test [1] (setting [3]) and more than 10000 nM in test [1] (setting [4]). In addition, the Emax in test [1] (setting [6]) is 50 to 90%; in test [2] (Homo sapiens, 96 h), less than 50%. In test [2], this molecule had a GI50 of more than 10000 nM.
Consider `CN(CCO)S(=O)(=O)Nc1ccc(F)c(Oc2ccc3ncn(C4CC5(CCN(C6CCC(c7cc8c(cc7F)c(N7CCC(=O)NC7=O)nn8C)CC6F)CC5)C4)c(=O)c3c2)c1C#N` (single isomer, unassigned) [Compound 146, 6-[2-cyano-6-fluoro-3-[[2-hydroxyethyl(methyl)sulfamoyl]amino]phenoxy]-3-[7-[4-[3-(2,4-dioxohexahydropyrimidin-1-yl)-5-fluoro-1-methyl-indazol-6-yl]-2-fluoro-cyclohexyl]-7-azaspiro[3.5]nonan-2-yl]-4-oxo-quinazoline], for which the “HiBiT-Degradation A375.10 BRAF 2 hours Emax” value in test [1] is “** (<90% and >50%)”. In addition, in test [1] (setting [3]), the DC50 was less than 1000 nM. In test [1] (setting [4]), the DC50 is more than 10000 nM. For the same molecule, in test [2], the GI50 is more than 10000 nM; the “CTGlo A375.11 96 hours Emax” value is “** (<90% and >50%)”.
Consider `CCN(C)S(=O)(=O)Nc1ccc(F)c(Oc2ccc3ncn(C4CC5(C4)CN(C4CCC(c6cc7c(cc6F)c(N6CCC(=O)NC6=O)nn7C)CC4)C5)c(=O)c3c2)c1C#N` (single isomer, unassigned) [Compound 203, 6-[2-cyano-3-[[ethyl(methyl)sulfamoyl]amino]-6-fluoro-phenoxy]-3-[2-[4-[3-(2,4-dioxohexahydropyrimidin-1-yl)-5-fluoro-1-methyl-indazol-6-yl]cyclohexyl]-2-azaspiro[3.3]heptan-6-yl]-4-oxo-quinazoline], for which the DC50 in test [1] (setting [3]) is less than 1000 nM; in test [1] (setting [4]), less than 1000 nM; in test [1] (A375.10 cells, HiBiT, BRAF V600E, 24 hours, read-out: HiBiT-Degradation A375.10 BRAF 24 hours DC50) it was less than 1000 nM; in test [1] (A375.10 cells, HiBiT, BRAF V600E, 24 hours, read-out: HiBiT-Degradation A375.10 BRAF 24 hours IP) it was less than 1000 nM. Further, the Emax is less than 50% in test [1] (A375.10 cells, HiBiT, BRAF V600E, 24 hours, read-out: HiBiT-Degradation A375.10 BRAF 24 hours Emax); less than 50% in test [1] (read-out: HiBiT-Degradation A375.10 BRAF 2 hours Emax, A375.10 cells, BRAF V600E, 2 hours, residual protein remaining); 50 to 90% in test [2] (Homo sapiens, 96 h). In addition, the GI50 in test [2] is more than 10000 nM.
As for `CCN(C)S(=O)(=O)Nc1ccc(F)c(Oc2ccc3ncn(C4CC5(CCN(C6CCN(c7cc8c(cc7F)c(N7CCC(=O)NC7=O)nn8C)CC6)C5)C4)c(=O)c3c2)c1C#N` (single isomer, unassigned) [Compound 307, 6-[2-cyano-3-[[ethyl(methyl)sulfamoyl]amino]-6-fluoro-phenoxy]-3-[6-[1-[3-(2,4-dioxohexahydropyrimidin-1-yl)-5-fluoro-1-methyl-indazol-6-yl]-4-piperidyl]-6-azaspiro[3.4]octan-2-yl]-4-oxo-quinazoline], the DC50 in test [1] (setting [3]) was less than 1000 nM; in test [1] (setting [4]) it was 1000 to 10000 nM. The Emax in test [1] (setting [6]) fell in the range of 50 to 90%; in test [2] (Homo sapiens, 96 h), 50 to 90%. Moreover, the GI50 in test [2] (Homo sapiens, 96 h) was in the range of 1000 to 10000 nM.
With `CCN(C)S(=O)(=O)Nc1ccc(F)c(Oc2ccc3ncn([C@H]4COC5(CCN(C6CC7(C6)CN(c6cc8c(cc6F)c(N6CCC(=O)NC6=O)nn8C)C7)CC5)C4)c(=O)c3c2)c1F` [Compound 186, (3R)-8-[2-[3-(2,4-dioxohexahydropyrimidin-1-yl)-5-fluoro-1-methyl-indazol-6-yl]-2-azaspiro[3.3]heptan-6-yl]-3-[6-[3-[[ethyl(methyl)sulfamoyl]amino]-2,6-difluoro-phenoxy]-4-oxo-quinazolin-3-yl]-1-oxa-8-azaspiro[4.5]decane], the Emax in test [1] (setting [6]) was 50 to 90%; in test [2] (Homo sapiens, 96 h) it was more than 90%. Besides, the DC50 in test [1] (setting [7]) and in test [1] (setting [8]) was less than 1000 nM each time. The same molecule yielded a concentration for 50% growth inhibition (GI50) in test [2] (Homo sapiens, 96 h) of 1000 to 10000 nM.
`CCN(C)S(=O)(=O)Nc1ccc(F)c(Oc2ccc3ncn(C4CCC5(CC4)CCN(C4CCC(c6cc7c(cc6F)c(N6CCC(=O)NC6=O)nn7C)CC4)CC5)c(=O)c3c2)c1C#N` (single isomer, unassigned) [Compound 13, 9-[6-[2-cyano-3-[[ethyl(methyl)sulfamoyl]amino]-6-fluoro-phenoxy]-4-oxo-quinazolin-3-yl]-3-[4-[3-(2,4-dioxohexahydropyriimidin-1-yl)-5-fluoro-1-methyl-indazol-6-yl]cyclohexyl]-3-azaspiro[5.5]undecane]: the DC50 in test [1] (setting [3]) was less than 1000 nM. Further, the DC50 in test [1] (setting [4]) is less than 1000 nM. Further, the “HiBiT-Degradation A375.10 BRAF 2 hours Emax” value in test [1] (setting [5]) is recorded as “*** (<=50%)”. Also, in test [2], the GI50 was more than 10000 nM; the “CTGlo A375.11 96 hours Emax” value is “** (<90% and >50%)”.
